US9700051B2, “Use of squalamine or analogue as a disinfecting agent” (ASSISTANCE PUBLIQUE—HOPITAUX DE MARSEILLE, priority 2012, dated 2017)
In brackets after ≈: the same amount, converted by molar mass. Where two headings read alike, the source gives them in different places.

How the values were obtained:
[1] = tested on: Pseudomonas aeruginosa DSM 939 (ATCC 15442); assay: Disinfecting antibacterial action on infected nebulizer as per standard FR-EN 1040; type: cell-based; conditions: aqueous solution 0.5 g/l, within 1 hour
Method: (§1) In the different tests below the strains used were Pseudomonas aeruginosa DSM 939 (ATCC 15442), Staphylococcus aureus DSM 799 (ATCC 6538), Candida albicans DSM 1386 (ATCC 10231) and Aspergillus niger ATCC 16404.
(§2) The microbial contamination of nebulizers was obtained in vitro by soaking the inner part of nebulizers (Pari LC, SPRINT SP, Pari, Germany) in a bacterial suspension prepared in Mueller Hinton broth containing 1·10^8 to 5·10^8 cfu/mL of bacteria. Disinfection was performed by soaking this same part in a solution of sterile water containing squalamine for 1 h at a determined concentration of 0.5 g/L for the bacteria under consideration (S. aureus or P. aeruginosa). The nebulizer was then rinsed with two successive sterile water solutions. The bacterial count was performed on the second wash bath on Tryptone Soya Agar (24 h).

[2] = tested on: Staphylococcus aureus DSM 799 (ATCC 6538); assay: as above; type: cell-based; conditions: aqueous solution 0.5 g/l, within 1 hour
Method: as §1, §2

[3] = tested on: Candida albicans DSM 1386 (ATCC 10231); assay: Disinfecting antifungal activity on infected nebulizer as per standard FR-EN 1275; type: cell-based; conditions: aqueous solution 0.5 g/l, 1 h
Method: as §1
Nebulizer contamination with fungi was obtained in vitro by soaking the inner part of nebulizers (Pari LC, SPRINT SP, Pari, Germany) in 1·10^7 fungi suspension at 5·10^7 cfu/mL prepared in Sabouraud broth. After incubation the nebulizer was soaked in sterile water containing squalamine at the determined concentrations in relation to the fungal strains under consideration (i.e. 0.5 g/L for C. albicans (1 hour soaking) and 2 g/l for A. niger (6 h soaking). The nebulizer was then rinsed with two successive solutions of sterile water. The fungal count was performed on the second wash bath. The count of fungal colonies was performed on malt extract agar-agar (48 h).

[4] = tested on: Aspergillus niger ATCC 16404; assay: as above; type: cell-based; conditions: for log reduction of viable spore cells of A. Niger: 2 g/l, 6 hours; for log reduction in viable cells of A. niger: aqueous solution 0.5 g/l, 1 h
Method: as §1
Nebulizer contamination with fungi was obtained in vitro by soaking the inner part of nebulizers (Pari LC, SPRINT SP, Pari, Germany) in 1·10^7 fungi suspension at 5·10^7 cfu/mL prepared in Sabouraud broth. After incubation the nebulizer was soaked in sterile water containing squalamine at the determined concentrations in relation to the fungal strains under consideration (i.e. […] The nebulizer was then rinsed with two successive solutions of sterile water. The fungal count was performed on the second wash bath. The count of fungal colonies was performed on malt extract agar-agar (48 h).

S. aureus DSM 799 [5] = assay: In vitro model of nebulizer disinfection with aqueous solution; type: cell-based, Staphylococcus aureus; conditions: for log reduction for bacteria (S. aureus): 80 mg/ml; for log reduction for bacteria (S. aureus) / log reduction in viable cells of S. aureus: 20 minutes; for log reduction in viable cells of S. aureus: 0.5 g/l; for dose needed to ensure nebulizer disinfection: S. aureus DSM 799
From the text: as §1
(§3) Nebulizers of Pari LC type were infected with bacteria (S. aureus and P. aeruginosa) via a suspension calibrated at 10^8 cfu/ml, and with fungi (C. albicans and A. niger) via a suspension calibrated at 10^7 cfu/ml. These nebulizers were then disinfected by soaking in a squalamine solution for 20 min, Glutaraldehyde and korsolex (peracetic acid) being used as inhibition control.
(§4) The microbial contamination of the nebulizer was obtained in vitro by soaking the inner part of the nebulizer (Pari LC, SPRINT SP, Pari, Germany) in a bacterial suspension prepared in Mueller Hinton broth containing 1·10^8 to 5·10^8 cfu/ml of bacteria (NF EN 1040, 1997) for 20 minutes. Disinfection was obtained by soaking this same part in a sterile water solution containing squalamine or ASD 2 for […] at the determined concentration in relation to the bacteria under consideration. For the fungi, suspensions of 1·10^7 to 5·10^7 cfu/ml (NF EN 1275, 1997) were prepared in Sabouraud broth and after incubation the nebulizer was soaked in sterile water containing squalamine or ASD 2. The nebulizer was then rinsed with two successive solutions of sterile water. The bacterial or fungal count was performed on the second wash bath. The counting of bacterial or fungal colonies was conducted on Tryptone Soya Agar for 24 hours for bacterial growth and on malt extract agar-agar for fungi at 37° C. for 48 hours.
(§5) The bactericidal and fungicidal test was performed three times in independent experiments and each bacterium and mould was evaluated separately. The concentration of squalamine and ASD 2 was increased until the required bactericidal and fungicidal activity was obtained. The disinfection time was set at 20 minutes for the first case and subsequently extended to 6 hours for A. Niger.

P. aeruginosa DSM 939 [6] = assay: as above; type: cell-based, Pseudomonas aeruginosa; conditions: for log reduction for bacteria (P. aeruginosa): 80 mg/ml; for log reduction for bacteria (P. aeruginosa) / log reduction in viable cells of P. aeruginosa: 20 minutes; for log reduction in viable cells of P. aeruginosa: 0.5 g/l; for dose needed to ensure nebulizer disinfection: P. aeruginosa DSM 939
From the text: as §1, §3, §4, §5

C. albicans DSM 1386 [7] = assay: as above; type: cell-based, Candida albicans; conditions: for log reduction for C. albicans: 190 mg/ml; for log reduction in viable cells of C. albicans: 0.5 g/l, 20 minutes; for dose needed to ensure nebulizer disinfection: C. albicans DSM 1386
From the text: as §1, §3, §4, §5

A. niger ATCC 16404 [8] = assay: as above; type: cell-based, Aspergillus niger; conditions: for log reduction in viable cells of A. niger: 2 g/l, within 6 hours; for concentration enabling a fungicidal effect (with spore eradication) on A. niger: 6 hours; for dose needed to ensure nebulizer disinfection: A. niger ATCC 16404; for decrease for A. Niger: first attempt, 80 to 190 mg/ml, 20 minutes
From the text: as §1, §3, §4, §5

A. niger ATCC 16404 [9] = assay: Minimum Inhibitory Concentration (MIC); type: cell-based; conditions: Aspergillus niger, ATCC16404
From the text: as §1
(§6) 4.2.1) The nebulizers used were infected with different bacterial suspensions (S. aureus and P. aeruginosa) calibrated at 10^8 cfu/ml or fungal suspensions (C. albicans and A. niger) calibrated at 10^7 cfu/ml. In a preliminary set of experiments, values of Minimum Inhibitory Concentration (MIC) and Time Kill of squalamine and ASD 2 were determined against chosen reference bacteria and fungi (MIC only). […] A time of 20 minutes was defined to carry out nebulizer disinfection using squalamine whilst korsolex PAA and the 2% solution of glutaraldehyde were used for a time of 15 minutes following the manufacturers' instructions to obtain disinfecting properties. At a first attempt, it was able to be shown that the use of a dose of 80 mg/ml squalamine or ASD-2 for 20 minutes leads to a 2- and 3-log reduction for bacteria whilst a 2-log reduction for C. albicans was only obtained when using a concentration of squalamine or ASD-2 of 190 mg/ml. […] Nonetheless, squalamine and ASD 2 used at a concentration stronger than 0.5 g/l are capable of obtaining a 5-log10 reduction in viable cells of bacteria such as S. aureus, P. aeruginosa and a 4-log10 reduction for fungi such as C. albicans with a cycle of 20 min (FIG. 2A). On the other hand, for A. niger, the concentration enabling a fungicidal effect to be obtained (i.e. not only fungistatic but additionally with spore eradication) was higher than for the bacteria and over a longer time (2 g/l for 6 hours) (FIG. 2B).

C. albicans DSM 1386 [10] = assay: Minimum Inhibitory Concentration (MIC); type: cell-based; conditions: Candida albicans, DSM1386
From the text: as §1, §6

P. aeruginosa DSM 939 [11] = assay: Minimum Inhibitory Concentration (MIC); type: cell-based; conditions: Pseudomonas aeruginosa, DSM939
From the text: as §1, §6

S. aureus DSM 799 [12] = assay: Minimum Inhibitory Concentration (MIC); type: cell-based; conditions: Staphylococcus aureus, DSM799
From the text: as §1, §6

spores of A. Niger = conditions: acid glutaraldehyde 0.5%; within 100 minutes; cited from earlier work
[13] = Cutaneous toxicity on the backs of shaven mice; type: in vivo; conditions: concentrations in aqueous solution of 2 000
From the text: Cutaneous toxicity was examined over a period of 15 days by applying a squalamine ointment onto the backs of shaven mice (batch of 10 mice).

[14] = Effect on plastic or metallic material (corrosion)
S. aureus = conditions: topical lipophilic formulation, 0.5 to 5 mg/ml, 10^6 cfu/ml, cited from earlier work
A. niger = conditions: in vitro, within 24 hours; cited from earlier work

| SMILES | log reduction of viable cells of P. aeruginosa [1] [log] | log reduction of viable cells of S. aureus [2] [log] | log reduction in viable cells of C. albicans [3] [log] | log reduction of viable spore cells of A. Niger [4] [log] | log reduction in viable cells of A. niger [4] [log] | log reduction for bacteria (S. aureus) (S. aureus DSM 799 [5]) [log] | log reduction in viable cells of S. aureus (S. aureus DSM 799 [5]) [log] | dose needed to ensure nebulizer disinfection (S. aureus DSM 799 [5]) [mg/L] | log reduction for bacteria (P. aeruginosa) (P. aeruginosa DSM 939 [6]) [log] | log reduction in viable cells of P. aeruginosa (P. aeruginosa DSM 939 [6]) [log] | dose needed to ensure nebulizer disinfection (P. aeruginosa DSM 939 [6]) [mg/L] | log reduction for C. albicans (C. albicans DSM 1386 [7]) [log] | log reduction in viable cells of C. albicans (C. albicans DSM 1386 [7]) [log] | dose needed to ensure nebulizer disinfection (C. albicans DSM 1386 [7]) [mg/L] | log reduction in viable cells of A. niger (A. niger ATCC 16404 [8]) [log] | concentration enabling a fungicidal effect (with spore eradication) on A. niger (A. niger ATCC 16404 [8]) [g/L] | dose needed to ensure nebulizer disinfection (A. niger ATCC 16404 [8]) [mg/L] | decrease for A. Niger (A. niger ATCC 16404 [8]) | MIC (A. niger ATCC 16404 [9]) [µg/mL] | MIC (C. albicans DSM 1386 [10]) [µg/mL] | also measured |
| --- | --- | --- | --- | --- | --- | --- | --- | --- | --- | --- | --- | --- | --- | --- | --- | --- | --- | --- | --- | --- | --- |
| CC(C)CCC[C@@H](C)[C@H]1CCC2C3C(CC[C@@]21C)[C@@]1(C)CC[C@H](O)CC1C[C@@H]3NCCCCN (stereo partly drawn) [ASD 2] | 8 | 8 | 6 | 4 | 6 | 2 | 5 | 210 | 3 | 5 | 130 | 2 | 4 | 500 | 4 | 2 | 2000 | no significant decrease | 8 (≈ 16.8 µM) | 8 (≈ 16.8 µM) | MIC (P. aeruginosa DSM 939 [11]): 8 µg/mL (≈ 16.8 µM); MIC (S. aureus DSM 799 [12]): 2 µg/mL (≈ 4.21 µM) |
| O=CCCCC=O [acid glutaraldehyde, glutaraldehyde] | – | – | – | – | – | – | – | – | – | – | – | – | – | – | – | – | – | – | – | – | log reduction in the number of spores of A. Niger (spores of A. Niger): 1 log |
| CC(C)[C@@H](CC[C@@H](C)[C@H]1CCC2C3C(CC[C@@]21C)[C@@]1(C)CC[C@H](NCCCNCCCCN)CC1C[C@H]3O)OS(=O)(=O)O (stereo partly drawn) [squalamine] | 8 | 8 | 6 | 4 | 6 | 2 | 5 | 210 | 3 | 5 | 130 | 2 | 4 | 500 | 4 | 2 | 2000 | no significant decrease | 16 (≈ 25.5 µM) | 16 (≈ 25.5 µM) | log reduction of spores ([4]; aqueous solution of 2 g/l): 4 log; MIC (P. aeruginosa DSM 939 [11]): 4 µg/mL (≈ 6.37 µM); MIC (S. aureus DSM 799 [12]): 2 µg/mL (≈ 3.18 µM); cutaneous toxicity [13]: do not cause cutaneous toxicity; degradation of the equipment treated and/or in contact with the product [14]: do not induce any degradation; log reduction of S. aureus (S. aureus; within 24 hours): 4 log; log reduction of S. aureus (S. aureus; within 48 hours): 5 log; log reduction of A. niger (A. niger): 4 log |
